Data published in patent US20220192985A1, “METHOD OF PRODUCTION OF A COMPOSITE OF YEAST-DERIVED BETA GLUCAN PARTICLE WITH INCORPORATED POORLY-WATER-SOLUBLE LOW-MOLECULAR-WEIGHT COMPOUND, PHARMACEUTICAL PREPARATION AND USE THEREOF” (VYSOKA SKOLA CHEMICKO-TECHNOLOGICKA V PRAZE, priority 2019, published 2022).

Tests used:
Type in all cases: physicochemical
[1] = Powder rheology shear test (FT4), Example 8; conditions: pre-sheared at 3 kPa; ATO/GP mass ratio 25%
Procedure: (§1) The moisture (water content) of the samples was firstly measure using a moisture analysis balance (simple test, 100° C., 5 mg initial mass, infrared drying). […] The samples were then dried for 24 hours in the oven with very-slowly-moving fan at 30° C. Finally, a shear test (FIG. 15) was performed on the samples a Powder Rheometer FT4 (pre-sheared at 3 kPa consolidation and initial mass of 0.6-0.7 g).

[2] = Powder rheology shear test (FT4), Comparative Example 9; conditions: pre-sheared at 3 kPa, mass ratio 10%
Procedure: Shear tests were performed on the samples a Powder Rheometer FT4 (pre-sheared at 3 kPa consolidation and initial mass of 0.6-0.7 g). The tests were carried out per duplicate under laboratory conditions (21.2±0.7° C. and 35.1±2.0% relative humidity).

[3] = Moisture (water content), moisture analysis balance; conditions: first measurement, 100° C. infrared drying
Procedure: as §1

[4] = Dissolution test of (IBU+ASA)/GP, crude IBU and crude ASA in 10 mM HCl (pH 2.0); conditions: 10 mM HCl pH 2.0, room temperature; compared with encapsulated drug
Procedure: Dissolution tests (FIG. 11) were performed for crude micronized ibuprofen, crude acetylsalicylic acid and for the produced (IBU+ASA)/GP composite particles, in powder form and using 10 mM HCl (pH 2.0) as dissolution medium. For that, 20.0 mg of crude drug (IBU or ASA) or 100.0 mg of (IBU+ASA)/GP composite, were added to 200 mL of continuously stirred dissolution medium (for a maximum concentration of 0.1 mg of drug per ml of medium). The mixtures were continuously stirred at 250 rpm and room temperature in a 250-mL beaker. At pre-defined time-points (ranging from 0 to 60 min), 500 μL of sample were collected, centrifuged and filtered (200-nm pore size filtration membrane), and the concentration was evaluated by high-performance liquid chromatography (HPLC) with UV detection (Agilent), coupled with C18 column (100 mm×4.6 mm, 5 μm) and mobile phase consisting of 0.01 M ammonium phosphate buffer (pH 2.0) and acetonitrile, in gradient according to the Table 2: […]

| Structure (SMILES) | AIF (Angle of Internal Friction) [1] | Cohesion [1] | Cohesion ([2]; 21.2±0.7° C., 35.1±2.0% relative humidity) | AIF (Angle of Internal Friction) [2] | Category (flowability) [2] | FF (Flow Function) [2] | moisture (water content) [3] | dissolution rate [4] |
| --- | --- | --- | --- | --- | --- | --- | --- | --- |
| CC(C)c1c(C(=O)Nc2ccccc2)c(-c2ccccc2)c(-c2ccc(F)cc2)n1CC[C@@H](O)C[C@@H](O)CC(=O)O [Crude ATO, atorvastatin] | 45.3 ° | 0.879 kPa | 0.81 ± 0.21 kPa | 51.24 ± 0.82 ° | Cohesive | 2.43 ± 0.48 | 2.5 % wt. | – |
| CC(C)Cc1ccc(C(C)C(=O)O)cc1 (stereo not drawn) [crude IBU, ibuprofen] | – | – | – | – | – | – | – | slower dissolution rates |
| CC(=O)Oc1ccccc1C(=O)O [crude ASA, acetylsalicylic acid] | – | – | – | – | – | – | – | slower dissolution rates |
